One assay concerns the target 5-hydroxytryptamine receptor 4 (Cavia porcellus, UniProt O70528). Further: in other assays of this panel Not Active means under 50% inhibition at 10 µM.
Assay: not given
The format is cell membranes, Dunkin-Hartley, Striatum, Membrane.
Conditions: not given
Tyrosine-protein kinase Lck, sequence (P06239 whole entry): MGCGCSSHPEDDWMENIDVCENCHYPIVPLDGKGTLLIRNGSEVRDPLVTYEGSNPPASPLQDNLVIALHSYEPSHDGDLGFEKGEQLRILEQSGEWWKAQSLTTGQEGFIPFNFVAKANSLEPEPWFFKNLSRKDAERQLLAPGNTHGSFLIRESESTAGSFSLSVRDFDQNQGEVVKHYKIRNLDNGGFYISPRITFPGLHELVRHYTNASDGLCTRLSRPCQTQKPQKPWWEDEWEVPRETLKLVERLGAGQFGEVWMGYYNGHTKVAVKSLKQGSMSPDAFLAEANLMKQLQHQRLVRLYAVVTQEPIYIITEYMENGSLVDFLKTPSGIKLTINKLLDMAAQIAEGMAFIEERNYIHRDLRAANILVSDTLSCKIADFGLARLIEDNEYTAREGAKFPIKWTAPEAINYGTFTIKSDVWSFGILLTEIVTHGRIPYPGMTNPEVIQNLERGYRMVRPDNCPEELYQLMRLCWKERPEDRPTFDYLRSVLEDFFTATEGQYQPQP
5-hydroxytryptamine receptor 4, sequence (O70528 whole entry): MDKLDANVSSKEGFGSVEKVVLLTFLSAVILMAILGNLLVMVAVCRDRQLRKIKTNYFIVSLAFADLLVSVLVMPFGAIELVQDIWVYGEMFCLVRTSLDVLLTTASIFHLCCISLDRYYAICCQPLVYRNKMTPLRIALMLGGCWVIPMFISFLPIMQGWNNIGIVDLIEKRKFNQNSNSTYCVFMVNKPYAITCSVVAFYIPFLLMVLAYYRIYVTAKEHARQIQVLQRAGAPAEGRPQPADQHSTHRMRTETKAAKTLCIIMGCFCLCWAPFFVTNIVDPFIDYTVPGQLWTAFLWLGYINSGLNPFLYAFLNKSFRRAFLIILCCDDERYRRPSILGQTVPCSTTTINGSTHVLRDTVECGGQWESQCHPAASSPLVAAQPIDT
C-C chemokine receptor type 2, sequence (P41597 whole entry): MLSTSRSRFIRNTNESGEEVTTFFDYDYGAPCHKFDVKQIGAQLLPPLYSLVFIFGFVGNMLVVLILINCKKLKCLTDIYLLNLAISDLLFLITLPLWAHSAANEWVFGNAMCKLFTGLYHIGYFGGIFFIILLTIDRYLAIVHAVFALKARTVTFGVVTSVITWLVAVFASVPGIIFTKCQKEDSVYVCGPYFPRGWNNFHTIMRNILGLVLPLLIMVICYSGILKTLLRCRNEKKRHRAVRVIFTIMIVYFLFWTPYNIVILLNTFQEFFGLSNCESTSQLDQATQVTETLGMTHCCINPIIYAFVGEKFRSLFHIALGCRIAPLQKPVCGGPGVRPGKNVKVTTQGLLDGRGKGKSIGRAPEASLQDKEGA
As for `Cc1cc(NS(=O)(=O)c2ccc(N)cc2)no1` [SULFAMETHOXAZOLE], the IC50 result is “Not Active”.

As for `O=C1c2c(O)ccc(O)c2C(=O)c2c(NCCNCCO)ccc(NCCNCCO)c21` [MITOXANTRONE], the IC50 entry is “Not Active”.

Regarding `CSc1ccc2c(c1)N(CCC1CCCCN1C)c1ccccc1S2` (stereo unspecified) [THIORIDAZINE], the IC50 entry is “Not Active”.

Take `COc1cccc(C2(O)CCCCC2CN(C)C)c1` (stereo unspecified) [TRAMADOL]: the IC50 result is listed as “Not Active”.

`O=C(CCCN1CCC(O)(c2ccc(Cl)cc2)CC1)c1ccc(F)cc1` [HALOPERIDOL]: the IC50 result is recorded as “Not Active”.

The target in another assay is T1, Angiotensin-converting enzyme (Oryctolagus cuniculus, UniProt P12822).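 Further: enzymatic inhibition of angiotensin-converting enzyme measured with FAPGG as the substrate; in other assays of this panel Not Active means under 50% inhibition at 10 µM.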
T1 sequence (P12822 whole entry): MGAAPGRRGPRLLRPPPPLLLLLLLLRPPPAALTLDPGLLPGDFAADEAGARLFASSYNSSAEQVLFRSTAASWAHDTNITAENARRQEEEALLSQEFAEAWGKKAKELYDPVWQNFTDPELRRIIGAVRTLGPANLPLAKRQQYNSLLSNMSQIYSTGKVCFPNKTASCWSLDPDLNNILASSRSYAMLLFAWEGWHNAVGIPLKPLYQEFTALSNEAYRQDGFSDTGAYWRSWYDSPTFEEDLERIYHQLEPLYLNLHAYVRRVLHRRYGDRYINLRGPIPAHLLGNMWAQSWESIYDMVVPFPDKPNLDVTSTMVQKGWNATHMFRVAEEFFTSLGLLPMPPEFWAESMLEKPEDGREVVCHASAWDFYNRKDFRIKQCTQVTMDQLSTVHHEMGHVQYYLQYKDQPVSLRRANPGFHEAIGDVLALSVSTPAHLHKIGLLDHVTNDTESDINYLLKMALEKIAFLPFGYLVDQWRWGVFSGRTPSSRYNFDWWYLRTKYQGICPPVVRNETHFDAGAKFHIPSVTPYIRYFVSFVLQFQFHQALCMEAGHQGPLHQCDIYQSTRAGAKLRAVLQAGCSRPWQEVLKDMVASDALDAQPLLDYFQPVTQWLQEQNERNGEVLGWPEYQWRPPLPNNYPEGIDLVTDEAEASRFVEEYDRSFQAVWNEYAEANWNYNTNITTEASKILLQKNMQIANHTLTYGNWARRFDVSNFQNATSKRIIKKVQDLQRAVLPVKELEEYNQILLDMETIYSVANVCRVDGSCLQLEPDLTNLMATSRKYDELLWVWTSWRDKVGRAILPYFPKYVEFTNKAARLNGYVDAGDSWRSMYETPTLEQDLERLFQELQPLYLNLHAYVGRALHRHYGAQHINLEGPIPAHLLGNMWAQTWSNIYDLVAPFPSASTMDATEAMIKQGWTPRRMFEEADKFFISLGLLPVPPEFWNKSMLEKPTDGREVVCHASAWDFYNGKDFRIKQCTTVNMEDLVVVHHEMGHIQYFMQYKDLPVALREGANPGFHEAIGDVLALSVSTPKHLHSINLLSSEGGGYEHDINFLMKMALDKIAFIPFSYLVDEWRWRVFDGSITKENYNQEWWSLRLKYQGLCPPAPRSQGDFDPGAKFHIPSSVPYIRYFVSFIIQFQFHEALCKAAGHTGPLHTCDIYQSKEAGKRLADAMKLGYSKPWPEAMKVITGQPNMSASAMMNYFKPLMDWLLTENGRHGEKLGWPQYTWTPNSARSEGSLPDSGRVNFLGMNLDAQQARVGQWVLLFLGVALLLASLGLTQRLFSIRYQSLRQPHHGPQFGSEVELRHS
Nature of the assay: biochemical. In kind it is tissue-based, Lung.
Conditions: not given
`Cc1cc(NS(=O)(=O)c2ccc(N)cc2)no1` [SULFAMETHOXAZOLE]: the IC50 entry is reported as “Not Active”.

With `O=C1c2c(O)ccc(O)c2C(=O)c2c(NCCNCCO)ccc(NCCNCCO)c21` [MITOXANTRONE], the IC50 entry is given as “Not Active”.

For the compound `CSc1ccc2c(c1)N(CCC1CCCCN1C)c1ccccc1S2` (stereo unspecified) [THIORIDAZINE], the IC50 entry is reported as “Not Active”.

For the compound `COc1cccc(C2(O)CCCCC2CN(C)C)c1` (stereo unspecified) [TRAMADOL], the IC50 entry is “Not Active”.

For the compound `O=C(CCCN1CCC(O)(c2ccc(Cl)cc2)CC1)c1ccc(F)cc1` [HALOPERIDOL], the IC50 entry is reported as “Not Active”.

The next assay has as its target C-C chemokine receptor type 2 (Homo sapiens, UniProt P41597). Further: in other assays of this panel Not Active means under 50% inhibition at 10 µM.
Assay: not given
The format is cell membranes, CHO-K1, Membrane. The settings on record: cho-k1.
Consider `Cc1cc(NS(=O)(=O)c2ccc(N)cc2)no1` [SULFAMETHOXAZOLE], for which the IC50 entry is given as “Not Active”.

As for `O=C1c2c(O)ccc(O)c2C(=O)c2c(NCCNCCO)ccc(NCCNCCO)c21` [MITOXANTRONE], the IC50 result is recorded as “Not Active”.

`CSc1ccc2c(c1)N(CCC1CCCCN1C)c1ccccc1S2` (stereo unspecified) [THIORIDAZINE]: the IC50 result is on record as “Not Active”.

As for `COc1cccc(C2(O)CCCCC2CN(C)C)c1` (stereo unspecified) [TRAMADOL], the IC50 result is reported as “Not Active”.

For the compound `O=C(CCCN1CCC(O)(c2ccc(Cl)cc2)CC1)c1ccc(F)cc1` [HALOPERIDOL], the IC50 result is reported as “Not Active”.

Test system in the next assay: not listed separately
Nature of the assay: DRUGMATRIX: Interleukin IL-1 radioligand binding (ligand: [125I] interleukin 1beta). In kind it is cell membranes, Membrane. The settings on record: nih3t3; Not Active = under 50% inhibition at 10 µM.
As to `Cc1cc(NS(=O)(=O)c2ccc(N)cc2)no1` [SULFAMETHOXAZOLE], the IC50 entry was “Not Active” and the Ki entry was “Not Active”.

As for `O=C1c2c(O)ccc(O)c2C(=O)c2c(NCCNCCO)ccc(NCCNCCO)c21` [MITOXANTRONE], the IC50 result is “Not Active” and the Ki entry was “Not Active”.

In another assay the target is Matrix metalloproteinase-9 (Homo sapiens, UniProt P14780).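 Further: inhibition of isolated MMP-9 enzyme activity toward a synthetic peptide substrate, from the DrugMatrix protease screening panel; in other assays of this panel Not Active means under 50% inhibition at 10 µM.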
Matrix metalloproteinase-9, sequence (P14780 whole entry): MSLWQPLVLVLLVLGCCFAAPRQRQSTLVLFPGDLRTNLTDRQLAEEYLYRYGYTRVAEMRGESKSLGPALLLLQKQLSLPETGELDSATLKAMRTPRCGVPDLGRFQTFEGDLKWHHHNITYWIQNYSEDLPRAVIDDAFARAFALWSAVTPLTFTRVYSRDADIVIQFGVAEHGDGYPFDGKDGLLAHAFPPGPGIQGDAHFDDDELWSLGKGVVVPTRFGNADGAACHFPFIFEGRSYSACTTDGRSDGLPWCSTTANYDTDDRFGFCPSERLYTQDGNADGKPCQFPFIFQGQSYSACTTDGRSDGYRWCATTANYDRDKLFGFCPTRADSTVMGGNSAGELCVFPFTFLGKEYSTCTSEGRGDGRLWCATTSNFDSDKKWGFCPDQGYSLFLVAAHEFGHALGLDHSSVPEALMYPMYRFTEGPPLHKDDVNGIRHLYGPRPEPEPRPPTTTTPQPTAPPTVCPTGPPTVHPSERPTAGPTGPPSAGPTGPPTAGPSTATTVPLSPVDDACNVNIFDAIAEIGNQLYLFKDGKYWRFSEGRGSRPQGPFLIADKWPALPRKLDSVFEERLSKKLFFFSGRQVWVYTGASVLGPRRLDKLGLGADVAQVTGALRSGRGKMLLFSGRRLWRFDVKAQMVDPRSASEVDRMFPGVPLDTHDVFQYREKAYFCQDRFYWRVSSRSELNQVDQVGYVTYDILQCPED
Assay: not given
The format is cell-based.
Conditions: not given
As for `Cc1cc(NS(=O)(=O)c2ccc(N)cc2)no1` [SULFAMETHOXAZOLE], the IC50 result is recorded as “Not Active”.

With `O=C1c2c(O)ccc(O)c2C(=O)c2c(NCCNCCO)ccc(NCCNCCO)c21` [MITOXANTRONE], the IC50 entry is “Not Active”.

Turning to `CSc1ccc2c(c1)N(CCC1CCCCN1C)c1ccccc1S2` (stereo unspecified) [THIORIDAZINE], the IC50 entry is recorded as “Not Active”.

In the case of `COc1cccc(C2(O)CCCCC2CN(C)C)c1` (stereo unspecified) [TRAMADOL], the IC50 entry is on record as “Not Active”.

With `O=C(CCCN1CCC(O)(c2ccc(Cl)cc2)CC1)c1ccc(F)cc1` [HALOPERIDOL], the IC50 result is “Not Active”.

For a further assay, the target named is T2, Amine oxidase [flavin-containing] A (Homo sapiens, UniProt P21397).
T2 sequence (P21397 whole entry): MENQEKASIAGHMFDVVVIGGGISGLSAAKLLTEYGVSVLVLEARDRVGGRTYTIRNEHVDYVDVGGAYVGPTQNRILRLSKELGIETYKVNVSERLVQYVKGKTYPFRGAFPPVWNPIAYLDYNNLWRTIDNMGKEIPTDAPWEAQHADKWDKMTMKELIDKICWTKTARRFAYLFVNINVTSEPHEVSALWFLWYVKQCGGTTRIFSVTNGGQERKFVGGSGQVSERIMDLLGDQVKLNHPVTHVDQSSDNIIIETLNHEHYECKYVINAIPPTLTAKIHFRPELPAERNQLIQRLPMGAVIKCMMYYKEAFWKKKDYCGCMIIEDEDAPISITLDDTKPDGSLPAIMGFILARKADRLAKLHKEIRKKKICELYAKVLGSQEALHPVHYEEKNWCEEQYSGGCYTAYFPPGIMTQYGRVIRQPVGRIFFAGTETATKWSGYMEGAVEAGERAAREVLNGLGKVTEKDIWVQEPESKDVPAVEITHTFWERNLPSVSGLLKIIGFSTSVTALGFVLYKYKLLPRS
Nature of the assay: DRUGMATRIX: Monoamine Oxidase MAO-A enzyme inhibition (substrate: Kynuramine). Further details: species or system BTI-TN-5B1-4. The settings on record: bti-tn-5b1-4; Not Active = under 50% inhibition at 10 µM.
`Cc1cc(NS(=O)(=O)c2ccc(N)cc2)no1` [SULFAMETHOXAZOLE]: the IC50 result was “Not Active”.

On to `O=C1c2c(O)ccc(O)c2C(=O)c2c(NCCNCCO)ccc(NCCNCCO)c21` [MITOXANTRONE], for which the IC50 result is “Not Active”.

On to `CSc1ccc2c(c1)N(CCC1CCCCN1C)c1ccccc1S2` (stereo unspecified) [THIORIDAZINE], for which the IC50 entry was “Not Active”.

For the compound `COc1cccc(C2(O)CCCCC2CN(C)C)c1` (stereo unspecified) [TRAMADOL], the IC50 result is reported as “Not Active”.

Regarding `O=C(CCCN1CCC(O)(c2ccc(Cl)cc2)CC1)c1ccc(F)cc1` [HALOPERIDOL], the IC50 result is “Not Active”.

Another assay concerns the target Tyrosine-protein kinase Lck (Homo sapiens, UniProt P06239). Nature of the assay: DRUGMATRIX: Protein Tyrosine Kinase, LCK enzyme inhibition (substrate: Poly(Glu:Tyr)). The settings on record: insect cells; Not Active = under 50% inhibition at 10 µM. The format is cell-based, Insect cells.
For `Cc1cc(NS(=O)(=O)c2ccc(N)cc2)no1` [SULFAMETHOXAZOLE], the IC50 entry was “Not Active”.

Turning to `O=C1c2c(O)ccc(O)c2C(=O)c2c(NCCNCCO)ccc(NCCNCCO)c21` [MITOXANTRONE], the IC50 entry is on record as “Not Active”.

In the case of `CSc1ccc2c(c1)N(CCC1CCCCN1C)c1ccccc1S2` (stereo unspecified) [THIORIDAZINE], the IC50 result is listed as “Not Active”.

For `COc1cccc(C2(O)CCCCC2CN(C)C)c1` (stereo unspecified) [TRAMADOL], the IC50 result is “Not Active”.

Consider `O=C(CCCN1CCC(O)(c2ccc(Cl)cc2)CC1)c1ccc(F)cc1` [HALOPERIDOL], for which the IC50 entry is given as “Not Active”.

Another assay concerns the target Carbonic anhydrase 2 (Homo sapiens, UniProt P00918). Nature of the assay: DRUGMATRIX: Carbonic Anhydrase II enzyme inhibition (substrate: 4-Nitrophenyl acetate (4-NPA)). In kind it is tissue-based, Erythrocyte. The settings on record: erythrocyte; Not Active = under 50% inhibition at 10 µM.
For `Cc1cc(NS(=O)(=O)c2ccc(N)cc2)no1` [SULFAMETHOXAZOLE], the IC50 result is recorded as “Not Active”.

As for `O=C1c2c(O)ccc(O)c2C(=O)c2c(NCCNCCO)ccc(NCCNCCO)c21` [MITOXANTRONE], the IC50 entry is on record as “Not Active”.

In the case of `CSc1ccc2c(c1)N(CCC1CCCCN1C)c1ccccc1S2` (stereo unspecified) [THIORIDAZINE], the IC50 entry is given as “Not Active”.

Take `COc1cccc(C2(O)CCCCC2CN(C)C)c1` (stereo unspecified) [TRAMADOL]: the IC50 result is given as “Not Active”.

For the compound `O=C(CCCN1CCC(O)(c2ccc(Cl)cc2)CC1)c1ccc(F)cc1` [HALOPERIDOL], the IC50 result is “Not Active”.

Test system in a further assay: not listed separately
Nature of the assay: DRUGMATRIX: Phosphodiesterase PDE3 enzyme inhibition (substrate: [3H]cAMP + cAMP). In kind it is tissue-based, Homo sapiens. Particulars: platelet; Not Active = under 50% inhibition at 10 µM.
On to `Cc1cc(NS(=O)(=O)c2ccc(N)cc2)no1` [SULFAMETHOXAZOLE], for which the IC50 entry was “Not Active” and the Ki entry is reported as “Not Active”.

For the compound `O=C1c2c(O)ccc(O)c2C(=O)c2c(NCCNCCO)ccc(NCCNCCO)c21` [MITOXANTRONE], the IC50 entry was “Not Active” and the Ki entry was “Not Active”.

For the next assay, the target named is T3, Muscarinic acetylcholine receptor M2 (Homo sapiens, UniProt P08172). Further: in other assays of this panel Not Active means under 50% inhibition at 10 µM.
T3 sequence (P08172 whole entry): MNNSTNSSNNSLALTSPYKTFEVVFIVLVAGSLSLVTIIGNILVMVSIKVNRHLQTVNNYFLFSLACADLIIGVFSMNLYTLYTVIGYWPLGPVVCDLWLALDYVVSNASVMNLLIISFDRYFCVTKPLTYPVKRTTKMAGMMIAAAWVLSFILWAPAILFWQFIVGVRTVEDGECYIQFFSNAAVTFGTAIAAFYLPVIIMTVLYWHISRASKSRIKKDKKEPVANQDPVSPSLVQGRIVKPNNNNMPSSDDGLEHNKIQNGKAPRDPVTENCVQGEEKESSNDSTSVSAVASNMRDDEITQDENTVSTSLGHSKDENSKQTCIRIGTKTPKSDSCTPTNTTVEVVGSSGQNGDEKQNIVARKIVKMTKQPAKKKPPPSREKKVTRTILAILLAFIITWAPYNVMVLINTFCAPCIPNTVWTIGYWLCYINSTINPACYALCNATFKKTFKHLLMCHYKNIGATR
Assay: not given
The format is cell membranes, CHO-K1, Membrane. Particulars: cho-k1.
In the case of `Cc1cc(NS(=O)(=O)c2ccc(N)cc2)no1` [SULFAMETHOXAZOLE], the IC50 entry is recorded as “Not Active”.

On to `COc1cccc(C2(O)CCCCC2CN(C)C)c1` (stereo unspecified) [TRAMADOL], for which the IC50 entry is on record as “Not Active”.

On to `O=C(CCCN1CCC(O)(c2ccc(Cl)cc2)CC1)c1ccc(F)cc1` [HALOPERIDOL], for which the IC50 result is on record as “Not Active”.

The values above are taken from ChEMBL document CHEMBL1909046, “DrugMatrix in vitro pharmacology data”.
